Assay results published in US6524800B2, “Exploiting genomics in the search for new drugs” (Affymetrix, Inc., priority 1997, dated 2003).
pIC50: −log10 of the molar value. Where two headings read alike, the source gives them in different places.

Columns and labels:
[1] = system: human lung fibroblast cells; conditions: cited from earlier work
cdc2-cyclin B = assay: purified kinase phosphorylation assay, cdc2-cyclin B; type: biochemical, Starfish
Text: (§1) To examine the effects of a range of diverse substituents on the purine ring, we synthesized combinatorial libraries in which the 2, 6, and 9 positions could be varied starting with a 2-flouro-6-chloropurine framework. (FIG. 1A) (2,3). Substitution chemistry was used to install amines at the 2 and 6 positions, and a Mitsunobu reaction (4,5) was used to alkylate the N9 position of the purine core. The subsitution chemistry allows introduction of primary and secondary amines bearing a wide range of functional groups, whereas the Mitsunobu reaction tolerates primary and secondary alcohols lacking additional acidic hydrogens. Newly appended groups can be modified combinatorially in subsequent steps with a variety of chemistries including acylation, reductive amination, and Suzuki coupling reactions (6), During library synthesis, one position is held invariant to allow attachment to the solid support. Libraries are synthesized in a spatially separated format with either a pin apparatus (7) or polystyrene resin and screened for kinase inhibitors with a 96-well, solution-phase phosphorylation assay.
9. Starfish is the major source for cdc2-cyclin B kinase.

[2] = system: mRNA levels of nearly all yeast genes; assay: transcript profiling with high-density oligonucleotide expression arrays; type: cell-based, S. cerevisiae; conditions: for number of genes with greater than twofold change in transcript level: more than 6200 genes monitored; for YCRX13W SOL2 transcript INCREASE: FLA UNIQUE
Protocol: In addition to measuring the inhibitory effects of purine derivatives in kinase assays and assays of cell growth, their effects on the mRNA levels of nearly all yeast genes were determined with high-density oligonucleotide expression arrays (17, 18). These arrays (19, 20) make it possible to measure quantitatively and in parallel mRNA levels for a very large number of genes after any chemical, environmental, or genetic perturbation.
Yeast cultures were grown to late logarithmic phase (15), treated with 25 μM concentrations of the inhibitors for 2 hours, after which cellular polyadenylated mRNA was isolated and converted to biotin-labeled complementary RNA (cRNA) (17, 18). The labeled cRNA was then hybridized to a set of four arrays containing more than 260,000 25-nucleotide oligomers (20).
15. […] Three cultures [110 ml, in yeast extract, peptone, and dextrose (YPD)] were inoculated with single colonies of YRP1 (MAT, erg6::LEU2, pdr5::TRP1, snq2::HIS6) and grown at 30° C. with constant agitation in a water bath incubator. When the cell density reached an optical density (OD) of 0.9 (at a wavelength of 600 nm), 27.5 μl of a 100 mM dimethyl sulfoxide (DMSO) stock solution of 52 or flavopiridol or DMSO alone was added. After 2 hours the cells were harvested by centrifugation and flash frozen with liquid nitrogen. For the temperature-sensitive cdc28 mutants, three cultures (75 ml, YPD) of AFS 199 (cdc28-13), AA104 (cdc28-4), and their isogenic background strain AFS34 (MATa, ade2-1, his3-11, leu2-3, trp1-1, ura3) were grown from single colonies to an OD of 0.9 (600 nm) and harvested as described. Frozen cells were stored at […]

Srb10 = biological target: T1, Srb10 (Saccharomyces cerevisiae, UniProt P39073); assay: kinase assay in immunoprecipitates, Srb10; type: biochemical; conditions: immunoprecipitated yeast kinase
T1 construct: made in house

Cak1p = biological target: T2, Cak1p (Saccharomyces cerevisiae, UniProt P43568); assay: kinase assay in immunoprecipitates, Cak1p; type: biochemical; conditions: immunoprecipitated yeast kinase
T2 construct: made in house

yeast cells = assay: yeast arrest morphology and FACS; type: cell-based
Text: 16. The diminished growth inhibitory activity of compound 52Me is unlikely to result from poorer bioavailability because a similar N6 methylation is observed to increase the in vivo potency of a related series of purine-based inhibitors. The residual growth inhibitory activity of 52Me likely reflects activity against other cellular targets.

Pho85p = biological target: T3, Pho85p (Saccharomyces cerevisiae, UniProt P17157); assay: kinase assay in immunoprecipitates, Pho85p; type: biochemical, yeast; conditions: for inhibition of Pho85p (in words): immunoprecipitates
T3 construct: made in house

[3] = system: drug-sensitized yeast strain; assay: yeast growth inhibition; type: cell-based; conditions: Saccharomyces cerevisiae; strain with drug-sensitizing deletions (erg6, pdr5, snq2)
Cdc28p = biological target: T4, Cdc28p (Saccharomyces cerevisiae, UniProt P00546); assay: kinase assay in immunoprecipitates, Cdc28p; type: biochemical, yeast; conditions: for inhibition of Cdc28p (in words): immunoprecipitates
T4 construct: made in house

Kin28p = biological target: T5, Kin28p (Saccharomyces cerevisiae, UniProt P06242); assay: kinase assay in immunoprecipitates, Kin28p; type: biochemical; conditions: immunoprecipitated yeast kinase
T5 construct: made in house

[4] = system: four yeast CDKs (Cdc28p, Kin28p, Pho85p, and Srb10p) and the related kinase Cak1p; assay: yeast kinase panel in immunoprecipitates; type: biochemical
Protein kinase C [5] = biological target: Protein kinase C (Homo sapiens, UniProt P24723); assay: purified kinase assay, Protein kinase C (Table 1 r21); type: biochemical; conditions: Table 1 r21, isoform symbol not given
Text: as §1

Protein kinase C [6] = biological target: Protein kinase C (Homo sapiens, UniProt Q05655); assay: purified kinase assay, Protein kinase C (Table 1 r19); type: biochemical; conditions: Table 1 r19, isoform symbol not given
Text: as §1

cdk4-cyclin D1 = cdk4-cyclin D1 (Homo sapiens, UniProt P11802); assay: purified kinase assay, cdk4-cyclin D1; type: biochemical
Text: as §1

Protein kinase C [7] = biological target: Protein kinase C (Homo sapiens, UniProt Q05513); assay: purified kinase assay, Protein kinase C (Table 1 r22); type: biochemical; conditions: Table 1 r22, isoform symbol not given
Text: as §1

cdk2-cyclin A = cdk2-cyclin A (Homo sapiens, UniProt P24941); assay: purified kinase assay, cdk2-cyclin A; type: biochemical
Text: as §1

cdk2-cyclin E = cdk2-cyclin E (Homo sapiens, UniProt P24941); assay: purified kinase assay, cdk2-cyclin E; type: biochemical
Text: as §1

Protein kinase C [8] = biological target: Protein kinase C (Homo sapiens, UniProt P05129); assay: purified kinase assay, Protein kinase C (Table 1 r18); type: biochemical; conditions: Table 1 r18, isoform symbol not given
Text: as §1

erk1 = erk1 (Homo sapiens, UniProt P27361); assay: purified kinase assay, erk1; type: biochemical
Text: as §1

[9] = biological target: cGMP-dependent protein kinase (Homo sapiens, UniProt Q13976); assay: purified kinase assay, cGMP-dependent protein kinase; type: biochemical
Text: as §1

[10] = biological target: Insulin-receptor tyrosine kinase (Homo sapiens, UniProt P06213); assay: purified kinase assay, Insulin-receptor tyrosine kinase; type: biochemical
Text: as §1

Protein kinase C2 = Protein kinase C2 (Homo sapiens, UniProt P05771); assay: purified kinase assay, Protein kinase C2 (Table 1 r17); type: biochemical
Text: as §1

cdk5-p35 = cdk5-p35 (Homo sapiens, UniProt Q00535); assay: purified kinase assay, cdk5-p35; type: biochemical
Text: as §1

GSK3- = GSK3- (Homo sapiens, UniProt P49841); assay: purified kinase assay, GSK3-; type: biochemical
Text: as §1

Casein kinase 1 = assay: purified kinase assay, Casein kinase 1; type: biochemical, human
Text: as §1

Protein kinase C [11] = biological target: Protein kinase C (Homo sapiens, UniProt Q02156); assay: purified kinase assay, Protein kinase C (Table 1 r20); type: biochemical; conditions: Table 1 r20, isoform symbol not given
Text: as §1

[12] = system: NCI panel of 60 human tumor cell lines; assay: NCI panel growth inhibition; type: cell-based
Protein kinase C1 = Protein kinase C1 (Homo sapiens, UniProt P05771); assay: purified kinase assay, Protein kinase C1 (Table 1 r16); type: biochemical
Text: as §1

Protein kinase C [13] = biological target: Protein kinase C (Homo sapiens, UniProt P17252); assay: purified kinase assay, Protein kinase C (Table 1 r15); type: biochemical; conditions: Table 1 r15, isoform symbol not given
Text: as §1

[14] = system: NCI-H522 non-small cell lung cancer cell line; assay: NCI panel growth inhibition, NCI-H522; type: cell-based, human
[15] = biological target: c-jun NH2-terminal kinase; assay: purified kinase assay, c-jun NH2-terminal kinase; type: biochemical, human
Text: as §1

[16] = system: KM12 colon cancer cell line; assay: NCI panel growth inhibition, KM12; type: cell-based, human
[17] = biological target: cAMP-dependent protein kinase (Homo sapiens, UniProt P17612); assay: purified kinase assay, cAMP-dependent protein kinase; type: biochemical
Text: as §1

[18] = yeast, inhibitor versus untreated
[19] = immunoprecipitated yeast kinase

T3 sequence (P17157 whole entry): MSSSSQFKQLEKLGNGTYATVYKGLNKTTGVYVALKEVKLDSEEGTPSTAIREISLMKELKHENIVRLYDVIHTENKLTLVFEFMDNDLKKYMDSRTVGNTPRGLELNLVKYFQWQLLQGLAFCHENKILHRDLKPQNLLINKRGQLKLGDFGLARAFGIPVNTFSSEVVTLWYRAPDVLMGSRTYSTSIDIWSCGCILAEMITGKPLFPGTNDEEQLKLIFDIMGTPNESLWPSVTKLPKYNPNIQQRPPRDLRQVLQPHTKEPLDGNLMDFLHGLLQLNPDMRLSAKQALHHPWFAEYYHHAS
T4 sequence (P00546 whole entry): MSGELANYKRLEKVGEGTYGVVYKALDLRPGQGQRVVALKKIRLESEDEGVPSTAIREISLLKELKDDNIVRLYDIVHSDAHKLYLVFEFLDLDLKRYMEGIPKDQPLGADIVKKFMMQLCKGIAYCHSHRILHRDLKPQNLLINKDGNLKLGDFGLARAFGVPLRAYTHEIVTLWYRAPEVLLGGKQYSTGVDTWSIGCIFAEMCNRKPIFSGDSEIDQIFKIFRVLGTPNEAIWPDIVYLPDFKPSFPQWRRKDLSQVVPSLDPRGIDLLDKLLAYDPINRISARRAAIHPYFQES
Chain of cGMP-dependent protein kinase (Q13976 whole entry): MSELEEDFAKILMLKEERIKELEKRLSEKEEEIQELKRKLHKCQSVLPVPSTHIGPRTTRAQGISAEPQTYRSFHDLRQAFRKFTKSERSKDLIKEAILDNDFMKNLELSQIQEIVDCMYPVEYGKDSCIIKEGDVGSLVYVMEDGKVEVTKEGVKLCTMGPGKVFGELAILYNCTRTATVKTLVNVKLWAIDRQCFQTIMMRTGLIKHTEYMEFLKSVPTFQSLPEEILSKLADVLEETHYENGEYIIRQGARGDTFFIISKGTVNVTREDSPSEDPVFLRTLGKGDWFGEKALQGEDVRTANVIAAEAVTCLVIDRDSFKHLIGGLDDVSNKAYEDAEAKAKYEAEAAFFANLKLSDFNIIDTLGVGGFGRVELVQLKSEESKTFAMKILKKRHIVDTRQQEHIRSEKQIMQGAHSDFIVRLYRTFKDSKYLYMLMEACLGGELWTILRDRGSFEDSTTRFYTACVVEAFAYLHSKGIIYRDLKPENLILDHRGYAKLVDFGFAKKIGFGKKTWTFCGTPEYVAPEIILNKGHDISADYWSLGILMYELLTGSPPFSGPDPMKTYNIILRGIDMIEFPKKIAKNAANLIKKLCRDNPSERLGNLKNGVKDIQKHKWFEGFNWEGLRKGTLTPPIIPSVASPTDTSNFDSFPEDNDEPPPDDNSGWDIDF
Chain of Insulin-receptor tyrosine kinase (P06213 28-1382): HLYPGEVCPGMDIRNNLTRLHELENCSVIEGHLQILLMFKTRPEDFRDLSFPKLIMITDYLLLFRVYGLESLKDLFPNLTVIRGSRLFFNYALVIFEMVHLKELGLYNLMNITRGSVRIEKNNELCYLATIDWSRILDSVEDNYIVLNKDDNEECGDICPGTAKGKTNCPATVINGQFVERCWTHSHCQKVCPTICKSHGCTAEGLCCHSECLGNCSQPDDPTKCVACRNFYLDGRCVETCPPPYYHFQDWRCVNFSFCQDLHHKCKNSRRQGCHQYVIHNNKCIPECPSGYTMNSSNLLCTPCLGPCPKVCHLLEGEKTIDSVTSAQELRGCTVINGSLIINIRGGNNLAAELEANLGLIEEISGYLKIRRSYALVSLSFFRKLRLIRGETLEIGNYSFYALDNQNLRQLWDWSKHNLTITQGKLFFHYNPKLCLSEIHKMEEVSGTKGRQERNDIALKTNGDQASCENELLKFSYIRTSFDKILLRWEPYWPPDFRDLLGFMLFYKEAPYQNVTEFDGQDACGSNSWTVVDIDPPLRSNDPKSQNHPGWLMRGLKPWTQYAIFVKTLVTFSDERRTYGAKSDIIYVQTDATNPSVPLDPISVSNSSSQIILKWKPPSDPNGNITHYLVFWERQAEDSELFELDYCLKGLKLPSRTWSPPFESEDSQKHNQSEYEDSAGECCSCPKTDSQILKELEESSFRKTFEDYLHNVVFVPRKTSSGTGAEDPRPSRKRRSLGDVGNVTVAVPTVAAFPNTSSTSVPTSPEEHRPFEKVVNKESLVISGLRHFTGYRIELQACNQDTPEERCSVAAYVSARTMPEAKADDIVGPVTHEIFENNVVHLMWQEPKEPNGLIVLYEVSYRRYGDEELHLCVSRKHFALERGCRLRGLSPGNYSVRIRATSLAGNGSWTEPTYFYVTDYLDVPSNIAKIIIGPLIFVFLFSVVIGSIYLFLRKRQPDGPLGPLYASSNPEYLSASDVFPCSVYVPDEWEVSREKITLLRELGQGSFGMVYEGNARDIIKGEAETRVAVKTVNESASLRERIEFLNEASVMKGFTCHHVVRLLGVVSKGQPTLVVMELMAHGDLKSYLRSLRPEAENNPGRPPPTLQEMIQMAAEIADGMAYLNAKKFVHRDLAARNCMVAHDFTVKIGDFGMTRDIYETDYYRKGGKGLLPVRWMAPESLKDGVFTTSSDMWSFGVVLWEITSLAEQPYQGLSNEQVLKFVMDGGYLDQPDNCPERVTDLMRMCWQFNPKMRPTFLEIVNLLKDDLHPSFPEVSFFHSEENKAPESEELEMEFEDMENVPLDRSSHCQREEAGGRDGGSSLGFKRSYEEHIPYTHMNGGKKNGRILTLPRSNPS
T5 sequence (P06242 whole entry): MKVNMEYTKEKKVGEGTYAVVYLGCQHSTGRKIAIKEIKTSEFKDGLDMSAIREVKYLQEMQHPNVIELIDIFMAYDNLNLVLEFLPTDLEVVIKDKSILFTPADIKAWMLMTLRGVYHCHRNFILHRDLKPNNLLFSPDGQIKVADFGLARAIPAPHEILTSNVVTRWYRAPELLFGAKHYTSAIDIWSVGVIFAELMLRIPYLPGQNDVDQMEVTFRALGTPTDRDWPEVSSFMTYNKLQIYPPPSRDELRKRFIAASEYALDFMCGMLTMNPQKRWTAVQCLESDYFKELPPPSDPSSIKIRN
T5 sequence (P37366 whole entry partner): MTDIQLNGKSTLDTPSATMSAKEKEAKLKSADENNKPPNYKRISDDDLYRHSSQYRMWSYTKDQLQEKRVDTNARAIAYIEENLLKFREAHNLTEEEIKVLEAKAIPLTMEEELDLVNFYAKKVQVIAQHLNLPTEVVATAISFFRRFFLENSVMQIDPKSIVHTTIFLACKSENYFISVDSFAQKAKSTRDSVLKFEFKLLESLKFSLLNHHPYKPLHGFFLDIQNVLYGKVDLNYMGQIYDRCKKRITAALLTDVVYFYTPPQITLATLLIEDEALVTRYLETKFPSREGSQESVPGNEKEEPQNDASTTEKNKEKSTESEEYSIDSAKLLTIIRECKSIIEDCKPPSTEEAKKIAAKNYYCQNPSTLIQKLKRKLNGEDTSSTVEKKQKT
Chain of cdk5-p35 (Q00535 whole entry): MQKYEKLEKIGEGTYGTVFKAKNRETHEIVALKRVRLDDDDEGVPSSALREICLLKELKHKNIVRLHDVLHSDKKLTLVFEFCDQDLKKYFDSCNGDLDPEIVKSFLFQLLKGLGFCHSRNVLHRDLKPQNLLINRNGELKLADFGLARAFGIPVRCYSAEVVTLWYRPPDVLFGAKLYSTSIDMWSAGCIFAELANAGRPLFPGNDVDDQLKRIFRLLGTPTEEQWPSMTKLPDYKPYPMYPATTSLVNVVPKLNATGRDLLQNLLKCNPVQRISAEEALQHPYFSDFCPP
Chain of cdk5-p35 (Q15078 whole entry partner): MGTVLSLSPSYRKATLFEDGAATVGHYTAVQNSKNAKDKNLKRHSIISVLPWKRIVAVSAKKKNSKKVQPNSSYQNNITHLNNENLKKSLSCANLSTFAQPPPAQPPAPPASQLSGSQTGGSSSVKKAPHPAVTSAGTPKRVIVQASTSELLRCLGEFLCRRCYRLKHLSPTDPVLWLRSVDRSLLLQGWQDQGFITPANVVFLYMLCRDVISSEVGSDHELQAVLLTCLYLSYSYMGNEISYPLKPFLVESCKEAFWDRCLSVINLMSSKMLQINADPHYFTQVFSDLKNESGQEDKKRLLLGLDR
Chain of Protein kinase C1 (P05771 whole entry): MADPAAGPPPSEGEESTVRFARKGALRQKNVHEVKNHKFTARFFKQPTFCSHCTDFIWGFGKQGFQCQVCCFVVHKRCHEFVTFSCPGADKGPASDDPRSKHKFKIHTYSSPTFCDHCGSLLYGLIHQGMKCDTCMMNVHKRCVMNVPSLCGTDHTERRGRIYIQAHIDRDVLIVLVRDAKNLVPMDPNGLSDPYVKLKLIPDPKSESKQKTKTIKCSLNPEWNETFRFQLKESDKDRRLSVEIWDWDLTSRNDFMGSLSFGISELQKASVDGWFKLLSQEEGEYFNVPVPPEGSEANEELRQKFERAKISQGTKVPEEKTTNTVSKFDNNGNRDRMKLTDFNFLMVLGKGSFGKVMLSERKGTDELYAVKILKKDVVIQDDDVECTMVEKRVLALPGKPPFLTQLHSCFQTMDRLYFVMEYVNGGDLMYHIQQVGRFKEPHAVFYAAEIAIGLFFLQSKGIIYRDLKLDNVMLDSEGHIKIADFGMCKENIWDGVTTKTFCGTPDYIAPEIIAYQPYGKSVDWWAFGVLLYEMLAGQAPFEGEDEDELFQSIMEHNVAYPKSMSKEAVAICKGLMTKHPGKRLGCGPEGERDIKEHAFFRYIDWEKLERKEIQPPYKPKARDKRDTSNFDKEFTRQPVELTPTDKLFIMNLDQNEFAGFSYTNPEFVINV
T2 sequence (P43568 whole entry): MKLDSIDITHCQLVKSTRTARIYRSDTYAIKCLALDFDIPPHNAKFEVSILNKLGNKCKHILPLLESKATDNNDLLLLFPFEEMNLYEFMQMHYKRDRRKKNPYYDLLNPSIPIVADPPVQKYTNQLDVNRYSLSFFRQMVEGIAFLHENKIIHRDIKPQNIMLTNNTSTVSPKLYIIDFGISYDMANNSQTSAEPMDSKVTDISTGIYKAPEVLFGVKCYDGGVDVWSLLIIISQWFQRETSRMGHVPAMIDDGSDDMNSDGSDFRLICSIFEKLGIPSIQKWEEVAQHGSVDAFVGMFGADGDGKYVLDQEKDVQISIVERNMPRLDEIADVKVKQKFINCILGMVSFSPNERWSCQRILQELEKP

SMILES | % of transcripts with greater than twofold change ([2]; 25 μM, 2 hours) [%] | ribosomal protein transcripts decreased at least threefold ([2]; 25 μM, 2 hours) | number of genes with greater than twofold change in transcript level ([2]; 25 μM, 2 hours) | YCRX13W SOL2 transcript INCREASE [2] | Y13R214W transcript INCREASES [2, 18] | YBL002W HTB2 transcript DECREASES [2, 18] | YBR296C transcript change (in words) [2, 18] | YGLI79 transcript change (in words) [2, 18] | YGR108W (CLB 1) transcript DECREASES [2, 18] | YKRO97W PCK1 transcript INCREASES [2, 18] | YLR178c (TFS1) transcript INCREASES [2, 18] | arrest morphology in yeast (in words) (yeast cells) | synchronization of yeast cells by FACS (in words) (yeast cells) | inhibition of Pho85p (in words) (Pho85p) | GI50 [3] [µM] | inhibition of Cdc28p (in words) (Cdc28p) | pIC50 [9] | pIC50 [10] | pIC50 (Casein kinase 1) | pIC50 [15] | further results
COc1ccc(CNc2nc(N(CCO)CCO)nc3c2ncn3C(C)C)cc1 [2-(bis-(hydroxylethyl)amino)-6-(4-methoxybenzylamino)-9-isopropylpurine] |  |  |  |  |  |  |  |  |  |  |  |  |  |  |  |  |  |  |  |  | cell cycle inhibitory activity by FACS ([1]; high concentrations): both G1-S and G2-M inhibitory activity; cell cycle inhibitory activity by FACS ([1]; lower concentrations): predominant G1-S inhibition
CC(C)n1cnc2c(Nc3cccc(Cl)c3)nc(NCCO)nc21 [Compound 52, 2-(2-hydroxyethylamino)-6-(3-chloroanilino)-9-isopropylpurine] | 3 | 14 | 194 | C52 - much smaller inc. (NL. 8 x at most) × | (4-4.5 × for C52 | (˜4.5 × for C52 | VERY LARGE INCREASE (15- | INCREASES C52 & FLA | (˜8 fold with C52 | ˜7-8 fold with C52 | INCREASES ˜6x | failed to cause a uniform arrest morphology | did not reveal synchronization | inhibited | 30 | inhibited |  |  |  |  | pIC50 (cdc2-cyclin B): 6.47; number of genes whose transcript levels were decreased at least threefold ([2]; 25 μM, 2 hours): ~50; YKLO71W transcript Increase ([2]; C52 UNIQUE): 7-12 × Increase (C52); YDR281 C transcript INCREASE [2, 18]: ˜4.5-5.5 × INCREASE; pIC50 (Srb10): < 3.30; pIC50 (Cak1p): < 3.30; pIC50 (Pho85p; [19]): 5.70; pIC50 (Cdc28p; [19]): 5.15; pIC50 (Kin28p): < 3.30
CC(C)n1cnc2c(N(C)c3cccc(Cl)c3)nc(NCCO)nc21 [Compound 52Me] | 0.03 |  | 2 |  |  |  |  |  |  |  |  | failed to cause a uniform arrest morphology | did not reveal synchronization |  | 200 |  |  |  |  |  | inhibition of any of the CDKs tested (in words) [4]: did not inhibit
CN1CC[C@H](c2c(O)cc(O)c3c(=O)cc(-c4ccccc4Cl)oc23)[C@H](O)C1 [flavopiridol, reference compound] | 2 | no ribosomal protein transcript levels decreased more than threefold | 132 | 7.5-10 × INCREASE | 7-8.5 × for FLA | ˜2.7 × for FLA | VERY LARGE INCREASE (15- | INCREASES C52 & FLA | ˜2.5-3 fold with FLA) | ˜4 × with FLA fold | INCREASES ˜6x | failed to cause a uniform arrest morphology |  |  | 7 |  |  |  |  |  | 
CC(C)[C@H](CO)Nc1nc(Nc2cccc(Cl)c2)c2ncn(C(C)C)c2n1 [purvalanol A] |  |  |  |  |  |  |  |  |  |  |  |  |  | inhibited |  | inhibited | < 5.00 | 5.30 | < 5.48 | < 6.00 | pIC50 (Protein kinase C [5]): < 4.00; pIC50 (Protein kinase C [6]): < 4.00; pIC50 (cdk4-cyclin D1): 6.07; pIC50 (Protein kinase C [7]): < 4.00; pIC50 (cdk2-cyclin A): 7.15; pIC50 (cdk2-cyclin E): 7.46; pIC50 (Protein kinase C [8]): < 5.00; pIC50 (erk1): 5.05; pIC50 (Protein kinase C2): < 5.00; pIC50 (cdk5-p35): 7.12; pIC50 (GSK3-): < 5.00; pIC50 (Protein kinase C [11]): < 4.00; increase in sensitivity of two cell lines out of the 60 ([12]; KM12 and NCI-H522 versus average GI50): ~20 fold; GI50 ([12]; read-out: average GI50 (50% growth inhibition), average over 60 cell lines): 2 µM; pIC50 (Protein kinase C1): < 5.00; pIC50 (Protein kinase C [13]): < 5.00; GI50 [14]: 0.347 µM; GI50 [16]: 0.076 µM; pIC50 [17]: 5.05
CC(C)[C@H](CO)Nc1nc(Nc2ccc(C(=O)O)c(Cl)c2)c2ncn(C(C)C)c2n1 [purvalanol B, 2-(1R-isopropyl-2-hydroxyethylamino)-6-(3-chloro-4-carboxyanilino)-9-isopropylpurine] |  |  |  |  |  |  |  |  |  |  |  |  |  |  |  |  | < 4.00 | 5.66 | < 5.48 | < 5.00 | pIC50 [17]: 5.42
